Source: the supplement of paper PMC10307832

What was measured:
Assay in all cases: relative viability (nuclei count vs DMSO), 5 days (fraction); higher = more cells survive
RU-SKI 43 + Trametinib = compound: CC[C@@H](C)CNCC(=O)N1CCC2=C([C@@H]1COC3=CC=CC(=C3)C)C=CS2 [RU-SKI 43] + CC(=O)Nc1cccc(-n2c(=O)n(C3CC3)c(=O)c3c(Nc4ccc(I)cc4F)n(C)c(=O)c(C)c32)c1 [Trametinib] (partner 0.02 µM)
Method in brief: (§1)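 One day after seeding in 1536-well plates, lung cancer cell lines were dosed by pin tool. Dosing was either single-drug or a fixed anchor-drug dose plus five library-drug doses (not always all listed) in √10 steps. After 5 days, nuclei were stained in one fix-and-stain step and counted on 4× images, and relative viability is the nuclei count of treated wells over that of vehicle wells, given as the median of duplicate plates.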

MK-8033 + Foretinib = compound: Cn1cc(-c2cnc3ccc4ccc(CS(=O)(=O)NCc5ccccn5)cc4c(=O)c3c2)cn1 [MK-8033] + COc1cc2c(Oc3ccc(NC(=O)C4(C(=O)Nc5ccc(F)cc5)CC4)cc3F)ccnc2cc1OCCCN1CCOCC1 [Foretinib] (partner 0.25 µM)
Method in brief: as §1

RU-SKI 43 + Foretinib = compound: CC[C@@H](C)CNCC(=O)N1CCC2=C([C@@H]1COC3=CC=CC(=C3)C)C=CS2 [RU-SKI 43] + COc1cc2c(Oc3ccc(NC(=O)C4(C(=O)Nc5ccc(F)cc5)CC4)cc3F)ccnc2cc1OCCCN1CCOCC1 [Foretinib] (partner 0.25 µM)
Method in brief: as §1

RU-SKI 43 + Tozasertib = compound: CC[C@@H](C)CNCC(=O)N1CCC2=C([C@@H]1COC3=CC=CC(=C3)C)C=CS2 [RU-SKI 43] + Cc1cc(Nc2cc(N3CCN(C)CC3)nc(Sc3ccc(NC(=O)C4CC4)cc3)n2)n[nH]1 [Tozasertib] (partner 0.1 µM)
Method in brief: as §1

Cell Line	relative viability (RU-SKI 43 + Trametinib; first compound 0.1 µM)	relative viability (RU-SKI 43 + Trametinib; first compound 0.3162 µM)	relative viability (RU-SKI 43 + Trametinib; first compound 1 µM)	relative viability (RU-SKI 43 + Trametinib; first compound 3.162 µM)	relative viability (RU-SKI 43 + Trametinib; first compound 10 µM)	relative viability (MK-8033 + Foretinib; first compound 0.02 µM)	relative viability (MK-8033 + Foretinib; first compound 0.06325 µM)	relative viability (MK-8033 + Foretinib; first compound 0.2 µM)	relative viability (MK-8033 + Foretinib; first compound 0.6325 µM)	relative viability (MK-8033 + Foretinib; first compound 2 µM)	relative viability (RU-SKI 43 + Foretinib; first compound 0.1 µM)	relative viability (RU-SKI 43 + Foretinib; first compound 0.3162 µM)	relative viability (RU-SKI 43 + Foretinib; first compound 1 µM)	relative viability (RU-SKI 43 + Foretinib; first compound 3.162 µM)	relative viability (RU-SKI 43 + Foretinib; first compound 10 µM)	relative viability (RU-SKI 43 + Tozasertib; first compound 0.1 µM)	relative viability (RU-SKI 43 + Tozasertib; first compound 0.3162 µM)	relative viability (RU-SKI 43 + Tozasertib; first compound 1 µM)	relative viability (RU-SKI 43 + Tozasertib; first compound 3.162 µM)	relative viability (RU-SKI 43 + Tozasertib; first compound 10 µM)
NCI-H1651	0.793	0.876	0.966	0.893	0.835	0.844	0.637	0.879	0.692	0.648	0.896	0.849	0.864	0.888	0.848	0.649	0.722	0.839	0.642	0.572
NCI-H2087	0.233	0.159	0.221	0.189	0.161	1.03	1.11	0.889	1.16	0.957	1.07	1.25	1.24	1.28	0.961	0.264	0.233	0.294	0.225	0.225
NCI-H2342	0.764		0.842	0.896	0.778	1.04	1.08	0.976	0.947	1.07	0.967	1.09	1.01	1.06	1.02	0.489	0.528	0.502	0.441	0.516
ChaGo-K-1	0.921	1.01	0.899	0.941	0.906	0.891	0.834	1.05	0.967	0.628	0.854	1.07	0.98	0.862	0.818	0.234	0.203	0.221	0.22	0.231
NCI-H661	0.539	0.676	0.564	0.564	0.477	1.04	0.995	0.997	0.919	0.985	1.01	1.29	1	1.09	0.894	0.345	0.349	0.345	0.335	0.365
LXF-289	0.682	0.743	0.728	0.66	0.66	0.965	0.934	0.938	1.04	0.965	0.934	1.03	1.05	1.09	0.97	0.229	0.249	0.21	0.2	0.183
LC-2-ad	0.951	1.08	0.985	0.928	0.847	0.94	0.867		0.981	0.944	0.929	0.922	0.908	1.02	0.838	0.424	0.442	0.459	0.424	0.405
NCI-H2085	0.506	0.493	0.494	0.653	0.499	0.914	0.75	1.23	0.919	0.951	0.928	0.772	0.91	0.93	0.934	0.716	0.71	0.854	0.743	0.671
